PMC5766609 (Scientific Reports, 2018)
Where two headings read alike, the source gives them in different places. Residues, ends and D or L forms follow the SMILES beside them.

Key:
[1] = target: T1, human glucagon receptor (GCGR) (Homo sapiens, UniProt P47871); test: cAMP assay on CHO-JumpIn cells stably transfected with human glucagon receptor (HitHunter cAMP); type: cell-based; conditions: cAMP accumulation, CHO-JumpIn cells with human GCGR, value ± spread;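 also: peptides tested as 4-fold serial dilutions starting from a 2 µM solution, cells exposed 1 hr at RT in darkness, cAMP quantified against a cAMP standard curve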
T1 construct: expressed in transfected cells; host or cells: CHO-JumpIn cells, stably transfected
Protocol: (§1) Briefly, a 2 μM solution of peptide was prepared, and 4-fold serial dilutions were made. 150 nL of the above titration was then dispensed into an Optiplate384 using an Echo555. […] The HitHunter® cAMP Assay kit calibration curve was prepared following the manufacturer’s protocol (DiscoveRx-90-0075L). 30,000 cells/well were added to the peptides, spun briefly at 500 rpm for 15 s and incubated at RT in the dark for 1 hr. The assay was developed as per the manufacturer’s instructions. cAMP accumulation due to GLP1R agonism or GCGR agonism was measured using an EnVision platereader (PerkinElmer), and calibrated using the cAMP standard curve. Data were analyzed using Assay Data Analyzer (ADA).

[2] = target: T2, human GLP-1 receptor (GLP1R) (Homo sapiens, UniProt P43220); test: cAMP assay on CHO-JumpIn cells stably transfected with human GLP-1 receptor (HitHunter cAMP); type: cell-based; conditions: Table 2, cAMP accumulation, buffer PBS, 0.1% BSA, 100 μM RO 20-1724, 20% serum, 1 hr at RT, value ± spread, read-out: EC50 GLP1R;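 also: peptides tested as 4-fold serial dilution series, cells exposed 1 hr at RT in the dark, cAMP quantified against a cAMP standard calibration curve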
T2 construct: expressed in transfected cells; host or cells: CHO-JumpIn cells, stably transfected
Protocol: as §1

[3] = Table 2, buffer PBS, 0.1% BSA, 100 μM RO 20-1724, 20% serum, 1 hr at RT, read-out: EC50 GCGR

T2 sequence (P43220 24-463): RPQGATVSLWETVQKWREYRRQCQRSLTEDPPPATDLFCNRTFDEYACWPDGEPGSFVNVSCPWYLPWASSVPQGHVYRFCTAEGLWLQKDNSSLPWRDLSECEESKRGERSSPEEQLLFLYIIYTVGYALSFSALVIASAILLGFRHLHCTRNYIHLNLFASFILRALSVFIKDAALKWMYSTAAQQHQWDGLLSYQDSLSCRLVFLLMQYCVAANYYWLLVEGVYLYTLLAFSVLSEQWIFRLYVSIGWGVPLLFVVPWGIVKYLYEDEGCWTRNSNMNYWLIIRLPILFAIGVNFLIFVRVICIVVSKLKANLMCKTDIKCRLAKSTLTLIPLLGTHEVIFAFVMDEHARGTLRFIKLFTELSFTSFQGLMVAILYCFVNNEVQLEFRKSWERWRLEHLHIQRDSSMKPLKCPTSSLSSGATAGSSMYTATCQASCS
T1 sequence (P47871 26-477): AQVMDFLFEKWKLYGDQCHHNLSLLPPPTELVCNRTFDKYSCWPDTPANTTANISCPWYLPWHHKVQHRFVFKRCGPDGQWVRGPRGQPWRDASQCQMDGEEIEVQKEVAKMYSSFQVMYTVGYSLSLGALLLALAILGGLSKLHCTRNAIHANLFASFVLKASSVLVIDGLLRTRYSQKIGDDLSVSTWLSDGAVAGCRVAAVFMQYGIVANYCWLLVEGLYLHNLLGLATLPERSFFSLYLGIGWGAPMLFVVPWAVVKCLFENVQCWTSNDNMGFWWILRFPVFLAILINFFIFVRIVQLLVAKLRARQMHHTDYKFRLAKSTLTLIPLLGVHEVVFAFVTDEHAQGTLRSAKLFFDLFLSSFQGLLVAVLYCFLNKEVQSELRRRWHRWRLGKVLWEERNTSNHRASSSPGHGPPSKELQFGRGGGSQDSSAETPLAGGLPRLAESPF

Compound `CSCC[C@H](NC(=O)[C@H](CC(C)C)NC(=O)[C@H](Cc1c[nH]c2ccccc12)NC(=O)[C@H](CCC(N)=O)NC(=O)[C@@H](NC(=O)[C@H](Cc1ccccc1)NC(=O)[C@H](CC(=O)O)NC(=O)[C@H](CCC(N)=O)NC(=O)[C@H](C)NC(=O)[C@H](CCCNC(=N)N)NC(=O)[C@H](CCCNC(=N)N)NC(=O)[C@H](CO)NC(=O)[C@H](CC(=O)O)NC(=O)[C@H](CC(C)C)NC(=O)[C@H](Cc1ccc(O)cc1)NC(=O)[C@H](CCCCN)NC(=O)[C@H](CO)NC(=O)[C@H](Cc1ccc(O)cc1)NC(=O)[C@H](CC(=O)O)NC(=O)[C@H](CO)NC(=O)[C@H](Cc1c[nH]c2ccccc12)NC(=O)[C@H](Cc1ccccc1)NC(=O)[C@H](CC(N)=O)NC(=O)CNC(=O)[C@@H](NC(=O)[C@H](CO)NC(=O)[C@@H](N)Cc1c[nH]cn1)C(C)C)C(C)C)C(=O)N[C@@H](CC(C)C)C(=O)N[C@H](C(N)=O)[C@@H](C)O` [Peptide 1] (H-HSVGNFWSDYSKYLDSRRAQDFVQWLMLT-NH2) has an EC50 [1, 3] of 8.45 ± 2.67 nM and an EC50 [2] of 16.7 ± 10.3 nM.
`CSCC[C@H](NC(=O)[C@H](CC(C)C)NC(=O)[C@H](Cc1c[nH]c2ccccc12)NC(=O)[C@H](CCC(N)=O)NC(=O)[C@@H](NC(=O)[C@H](Cc1ccccc1)NC(=O)[C@H](CC(=O)O)NC(=O)[C@H](Cc1c[nH]cn1)NC(=O)[C@H](C)NC(=O)[C@H](CCCNC(=N)N)NC(=O)[C@H](CCCNC(=N)N)NC(=O)[C@H](CC(=O)O)NC(=O)[C@H](CCC(=O)O)NC(=O)[C@@H](NC(=O)[C@H](Cc1ccc(O)cc1)NC(=O)[C@H](CCCCN)NC(=O)[C@H](CO)NC(=O)[C@H](Cc1ccc(O)cc1)NC(=O)[C@H](CC(=O)O)NC(=O)[C@H](CO)NC(=O)[C@@H](NC(=O)[C@H](Cc1ccccc1)NC(=O)[C@@H](NC(=O)CNC(=O)[C@H](CCC(N)=O)NC(=O)[C@H](CO)NC(=O)[C@@H](N)Cc1c[nH]cn1)[C@@H](C)O)[C@@H](C)O)C(C)C)C(C)C)C(=O)N[C@@H](CC(N)=O)C(=O)N[C@H](C(N)=O)[C@@H](C)O` [Peptide 2] (H-HSQGTFTSDYSKYVEDRRAHDFVQWLMNT-NH2) showed an EC50 [1, 3] of 2.24 ± 0.334 nM and an EC50 [2] of 0.184 ± 0.006 nM.
In the case of `CSCC[C@H](NC(=O)[C@H](CC(C)C)NC(=O)[C@H](Cc1c[nH]c2ccccc12)NC(=O)[C@H](CCC(N)=O)NC(=O)[C@@H](NC(=O)[C@H](Cc1ccccc1)NC(=O)[C@H](CC(=O)O)NC(=O)[C@H](Cc1c[nH]c2ccccc12)NC(=O)[C@H](C)NC(=O)[C@H](C)NC(=O)[C@H](CCCNC(=N)N)NC(=O)[C@H](CCC(=O)O)NC(=O)[C@H](CC(=O)O)NC(=O)[C@H](CC(C)C)NC(=O)[C@H](Cc1ccc(O)cc1)NC(=O)[C@H](CCCCN)NC(=O)[C@H](CCCNC(=N)N)NC(=O)[C@H](Cc1ccc(O)cc1)NC(=O)[C@H](CC(=O)O)NC(=O)[C@H](CO)NC(=O)[C@@H](NC(=O)[C@H](Cc1ccccc1)NC(=O)[C@@H](NC(=O)CNC(=O)[C@H](CCC(N)=O)NC(=O)[C@H](CO)NC(=O)[C@@H](N)Cc1c[nH]cn1)[C@@H](C)O)[C@@H](C)O)C(C)C)C(=O)N[C@@H](CC(N)=O)C(=O)N[C@H](C(N)=O)[C@@H](C)O` [Peptide 3] (H-HSQGTFTSDYRKYLDERAAWDFVQWLMNT-NH2), the EC50 [1, 3] is reported as 1.35 ± 0.173 nM and the EC50 [2] is reported as 0.427 ± 0.022 nM.
Work on `CC[C@H](C)[C@H](NC(=O)[C@H](CC(=O)O)NC(=O)[C@H](CC(C)C)NC(=O)[C@H](Cc1ccc(O)cc1)NC(=O)[C@H](CCCCN)NC(=O)[C@H](CO)NC(=O)[C@H](Cc1ccc(O)cc1)NC(=O)[C@H](CC(=O)O)NC(=O)[C@H](CO)NC(=O)[C@@H](NC(=O)[C@H](Cc1ccccc1)NC(=O)[C@@H](NC(=O)CNC(=O)[C@H](CCC(N)=O)NC(=O)[C@H](CO)NC(=O)[C@@H](N)Cc1c[nH]cn1)[C@@H](C)O)[C@@H](C)O)C(=O)NCC(=O)N[C@@H](CCCNC(=N)N)C(=O)N[C@@H](C)C(=O)N[C@@H](CCC(N)=O)C(=O)N[C@@H](CC(=O)O)C(=O)N[C@@H](Cc1ccccc1)C(=O)N[C@H](C(=O)N[C@@H](CCC(N)=O)C(=O)N[C@@H](Cc1c[nH]c2ccccc12)C(=O)N[C@@H](CC(C)C)C(=O)N[C@@H](CC(C)C)C(=O)N[C@@H](CC(N)=O)C(=O)N[C@H](C(N)=O)[C@@H](C)O)C(C)C` [Peptide 4] (H-HSQGTFTSDYSKYLDIGRAQDFVQWLLNT-NH2) yielded an EC50 [1, 3] of 0.026 ± 0.002 nM and an EC50 [2] of 1.33 ± 0.209 nM.
For `CSCC[C@H](NC(=O)[C@H](CC(C)C)NC(=O)[C@H](CO)NC(=O)[C@H](CC(=O)O)NC(=O)[C@H](CC(C)C)NC(=O)[C@H](Cc1ccc(O)cc1)NC(=O)[C@H](CCCCN)NC(=O)[C@H](CO)NC(=O)[C@H](Cc1ccc(O)cc1)NC(=O)[C@H](CC(=O)O)NC(=O)[C@H](CO)NC(=O)[C@@H](NC(=O)[C@H](Cc1ccccc1)NC(=O)[C@@H](NC(=O)CNC(=O)[C@H](CCC(N)=O)NC(=O)[C@H](CO)NC(=O)[C@@H](N)Cc1c[nH]cn1)[C@@H](C)O)[C@@H](C)O)C(=O)N[C@@H](C)C(=O)N[C@@H](CCC(N)=O)C(=O)N[C@@H](CC(=O)O)C(=O)N[C@@H](Cc1ccccc1)C(=O)N[C@H](C(=O)N[C@@H](CCC(N)=O)C(=O)N[C@@H](Cc1c[nH]c2ccccc12)C(=O)N[C@@H](CC(C)C)C(=O)N[C@@H](CCSC)C(=O)N[C@@H](CO)C(=O)N[C@H](C(N)=O)[C@@H](C)O)C(C)C` [Peptide 5] (H-HSQGTFTSDYSKYLDSLMAQDFVQWLMST-NH2), the EC50 [1, 3] was 0.025 ± 0.001 nM and the EC50 [2] was 0.133 ± 0.032 nM.
With `CC(C)C[C@H](NC(=O)[C@H](Cc1ccc(O)cc1)NC(=O)[C@H](CCCCN)NC(=O)[C@H](CO)NC(=O)[C@H](Cc1ccc(O)cc1)NC(=O)[C@H](CC(=O)O)NC(=O)[C@H](CO)NC(=O)[C@@H](NC(=O)[C@H](Cc1ccccc1)NC(=O)[C@@H](NC(=O)CNC(=O)[C@H](CCC(N)=O)NC(=O)[C@H](CO)NC(=O)[C@@H](N)Cc1c[nH]cn1)[C@@H](C)O)[C@@H](C)O)C(=O)N[C@@H](CC(=O)O)C(=O)N[C@@H](Cc1c[nH]c2ccccc12)C(=O)N[C@@H](CCCNC(=N)N)C(=O)N[C@@H](CCCNC(=N)N)C(=O)N[C@@H](C)C(=O)N[C@@H](CCC(N)=O)C(=O)N[C@@H](CC(=O)O)C(=O)N[C@@H](Cc1ccccc1)C(=O)N[C@H](C(=O)N[C@@H](CCC(N)=O)C(=O)N[C@@H](Cc1c[nH]c2ccccc12)C(=O)N[C@@H](CC(C)C)C(=O)N[C@@H](CC(C)C)C(=O)N[C@@H](CC(N)=O)C(=O)N[C@H](C(N)=O)[C@@H](C)O)C(C)C` [Peptide 6] the EC50 [1, 3] was 0.032 ± 0.013 nM and the EC50 [2] was 0.063 ± 0.034 nM.
`CC[C@H](C)[C@H](N)C(=O)N[C@@H](CC(N)=O)C(=O)N[C@@H](Cc1c[nH]cn1)C(=O)N[C@@H](CCC(=O)O)C(=O)N[C@@H](CCC(N)=O)C(=O)N[C@@H](Cc1c[nH]c2ccccc12)C(=O)N[C@@H](C)C(=O)N[C@@H](Cc1ccccc1)C(=O)N[C@H](C(=O)N[C@@H](CO)C(=O)N[C@@H](CC(=O)O)C(=O)N[C@@H](Cc1ccc(O)cc1)C(=O)N[C@@H](CO)C(=O)N[C@@H](CCCCN)C(=O)N[C@@H](Cc1ccc(O)cc1)C(=O)N[C@@H](CC(C)C)C(=O)N[C@@H](CC(=O)O)C(=O)N[C@@H](CO)C(=O)N[C@@H](CCCNC(=N)N)C(=O)N[C@@H](CCCNC(=N)N)C(=O)N[C@@H](C)C(=O)N[C@@H](CCC(N)=O)C(=O)N[C@@H](CC(=O)O)C(=O)N[C@@H](Cc1ccccc1)C(=O)N[C@H](C(=O)N[C@@H](CCC(N)=O)C(=O)N[C@@H](Cc1c[nH]c2ccccc12)C(=O)N[C@@H](CC(C)C)C(=O)N[C@@H](CCSC)C(=O)N[C@@H](CC(N)=O)C(=O)N[C@H](C(N)=O)[C@@H](C)O)C(C)C)[C@@H](C)O` [Peptide 14] (H-INHEQWAFTSDYSKYLDSRRAQDFVQWLMNT-NH2) gave an EC50 [1, 3] of 2.6 ± 3.68 nM.
For `CC(C)C[C@H](NC(=O)[C@H](CC(C)C)NC(=O)[C@H](Cc1c[nH]c2ccccc12)NC(=O)[C@H](CCC(N)=O)NC(=O)[C@@H](NC(=O)[C@H](Cc1ccccc1)NC(=O)[C@H](CC(=O)O)NC(=O)[C@H](CCC(N)=O)NC(=O)[C@H](C)NC(=O)[C@H](CCCNC(=N)N)NC(=O)[C@H](CCCNC(=N)N)NC(=O)[C@H](CO)NC(=O)[C@H](CC(=O)O)NC(=O)[C@H](CC(C)C)NC(=O)[C@H](Cc1ccc(O)cc1)NC(=O)[C@H](CCCCN)NC(=O)[C@H](CO)NC(=O)[C@H](Cc1ccc(O)cc1)NC(=O)[C@H](CC(=O)O)NC(=O)[C@H](CO)NC(=O)[C@@H](NC(=O)[C@H](Cc1ccccc1)NC(=O)[C@@H](NC(=O)CNC(=O)[C@H](CCC(N)=O)NC(=O)[C@H](CO)NC(=O)[C@@H](N)Cc1c[nH]cn1)[C@@H](C)O)[C@@H](C)O)C(C)C)C(=O)N[C@@H](CC(=O)O)C(=O)N[C@@H](CO)C(N)=O` [Peptide 35], the EC50 [2] was 0.018 ± 0.001 nM.
Work on `CCCCCCCCCCCCCCCC(=O)N[C@@H](CCC(=O)N[C@@H](CCC(=O)NCCCC[C@H](NC(=O)[C@H](CC(=O)O)NC(=O)[C@H](CO)NC(=O)[C@@H](NC(=O)[C@H](Cc1ccccc1)NC(=O)[C@@H](NC(=O)CNC(=O)[C@H](CCC(N)=O)NC(=O)[C@@H](CO)NC(=O)[C@@H](N)Cc1c[nH]cn1)[C@@H](C)O)[C@@H](C)O)C(=O)N[C@@H](CO)C(=O)N[C@@H](CCCCN)C(=O)N[C@@H](Cc1ccc(O)cc1)C(=O)N[C@@H](CC(C)C)C(=O)N[C@@H](CC(=O)O)C(=O)N[C@@H](CO)C(=O)N[C@@H](CCCNC(=N)N)C(=O)N[C@@H](CCCNC(=N)N)C(=O)N[C@@H](C)C(=O)N[C@@H](Cc1c[nH]cn1)C(=O)N[C@@H](CC(=O)O)C(=O)N[C@@H](Cc1ccccc1)C(=O)N[C@H](C(=O)N[C@@H](CCC(N)=O)C(=O)N[C@@H](Cc1c[nH]c2ccccc12)C(=O)N[C@@H](CC(C)C)C(=O)N[C@@H](CC(C)C)C(=O)N[C@@H](CC(N)=O)C(=O)N[C@H](C(N)=O)[C@@H](C)O)C(C)C)C(=O)O)C(=O)O` [Peptide 36] yielded an EC50 ([1]; Table 3, engineered versus parent peptides, read-out: EC50 hGCGR) of 0.023 ± 0.004 nM.
